Tests used:
[1] = molecular target: Cathepsin S (Homo sapiens, UniProt P25774); test: Inhibition of human recombinant cathepsin S by fluorescence assay
[2] = molecular target: Procathepsin L (Homo sapiens, UniProt P07711); test: Inhibition of human recombinant cathepsin L by fluorescence assay
[3] = molecular target: T1, Cathepsin K (Homo sapiens, UniProt P43235); test: Inhibition of human recombinant cathepsin K by fluorescence assay
T1 sequence (P43235 whole entry): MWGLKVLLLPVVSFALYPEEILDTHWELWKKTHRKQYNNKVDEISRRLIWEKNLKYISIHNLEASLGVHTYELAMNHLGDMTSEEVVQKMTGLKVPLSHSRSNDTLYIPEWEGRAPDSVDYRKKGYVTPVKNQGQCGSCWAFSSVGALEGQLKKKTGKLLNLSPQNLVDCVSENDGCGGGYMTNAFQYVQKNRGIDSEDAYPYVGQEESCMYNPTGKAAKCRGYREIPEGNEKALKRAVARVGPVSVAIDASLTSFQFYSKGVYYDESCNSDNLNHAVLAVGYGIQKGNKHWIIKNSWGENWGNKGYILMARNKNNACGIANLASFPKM

Sequence of Cathepsin S (P25774 whole entry): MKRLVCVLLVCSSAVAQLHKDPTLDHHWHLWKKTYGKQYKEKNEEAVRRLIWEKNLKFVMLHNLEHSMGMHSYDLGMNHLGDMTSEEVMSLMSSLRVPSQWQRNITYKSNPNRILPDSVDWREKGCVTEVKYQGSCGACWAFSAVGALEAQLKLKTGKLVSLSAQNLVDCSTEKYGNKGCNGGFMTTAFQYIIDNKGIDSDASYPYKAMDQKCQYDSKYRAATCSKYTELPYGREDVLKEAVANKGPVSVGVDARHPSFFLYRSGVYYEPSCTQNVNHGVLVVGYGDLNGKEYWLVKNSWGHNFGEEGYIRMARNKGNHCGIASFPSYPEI
Sequence of Procathepsin L (P07711 whole entry): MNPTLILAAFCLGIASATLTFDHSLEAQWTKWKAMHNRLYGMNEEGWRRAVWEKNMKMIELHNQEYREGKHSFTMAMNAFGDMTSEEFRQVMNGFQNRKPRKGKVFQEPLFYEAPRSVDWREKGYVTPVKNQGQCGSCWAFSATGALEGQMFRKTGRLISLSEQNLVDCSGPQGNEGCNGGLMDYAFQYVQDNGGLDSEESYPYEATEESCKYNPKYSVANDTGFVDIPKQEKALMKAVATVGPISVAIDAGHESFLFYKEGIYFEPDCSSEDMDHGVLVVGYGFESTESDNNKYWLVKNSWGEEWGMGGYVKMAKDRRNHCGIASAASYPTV

Compound | IC50 [1] [nM] | IC50 [2] [nM] | IC50 [3] [nM]
CC(C)(C)CN(Cc1ccc(Cn2cncn2)cc1)c1ccnc(C#N)n1 | > 1000 | > 1000 | 4.8
CC(C)(C)CN(Cc1ccc(I)cc1)c1ccnc(C#N)n1 | > 1000 | > 1000 | 19
CN1CCN(CC#Cc2ccc(CN(CC(C)(C)C)c3ccnc(C#N)n3)cc2)CC1 | > 1000 | > 1000 | 3.8
CC(C)(C)CN(Cc1ccccc1)c1ccnc(C#N)n1 | > 1000 | > 1000 | 69
CC(C)(C)CN(Cc1ccc(C#CCn2cncn2)cc1)c1ccnc(C#N)n1 | > 1000 | > 1000 | 8.6
CC(=O)N1CCN(CC#Cc2ccc(CN(CC(C)(C)C)c3ccnc(C#N)n3)cc2)CC1 | > 1000 | > 1000 | 6.4
CC(C)(C)CNc1nc(C#N)ncc1C#CCOc1cccnc1 | 460 | 1000 | 8.6
CN1CCN(c2ccc(CC#Cc3cnc(C#N)nc3NCC(C)(C)C)cc2)CC1 | 760 | 980 | 7.1
CC(C)(C)CN(Cc1ccc(C#CCN2CCC(N3CCCCC3)CC2)cc1)c1ccnc(C#N)n1 | > 1000 | > 1000 | 3.6
CC(C)(C)CN(Cc1ccc(C#CCN2CCCCC2)cc1)c1ccnc(C#N)n1 | > 1000 | > 1000 | 7.3

Continued, values first:

IC50 [1] [nM] | IC50 [2] [nM] | IC50 [3] [nM] | Compound
800 | > 1000 | 3.7 | CC(C)(C)CNc1nc(C#N)ncc1C#CCN1CCN(S(=O)(=O)CCCCl)CC1
> 1000 | > 1000 | 7.1 | COc1ccc(S(=O)(=O)N2CCN(CC#Cc3cnc(C#N)nc3NCC(C)(C)C)CC2)cc1
68 | 190 | 7.2 | CC(C)(C)CNc1nc(C#N)ncc1C#CCn1cnc(Cl)c1Cl
920 | > 1000 | 10 | CC(C)(C)CNc1nc(C#N)ncc1C#CCN1Cc2ccccc2C1
840 | 150 | 3.2 | CC(C)(C)CNc1nc(C#N)ncc1C#CCN1CCc2ccccc2C1

— ChEMBL document CHEMBL1144798, “New chemotypes for cathepsin K inhibitors” (Bioorg Med Chem Lett, 2008)
